Tests used:
Type in all cases: cell-based
[1] = system: TGF-β1-stimulated Smad2 phosphorylation in Mv1Lu cells; assay: TGF-β1-stimulated Smad2 phosphorylation, quantitative Western blot (P-Smad2/Smad2); details: for time dependence of the effect on TGF-β1-stimulated Smad2 phosphorylation: 20 LM MDC, 40 μM monensin, 20 μM TFP, 100 pM TGF-β1, several time periods; for concentration dependence of the effect on TGF-β1-stimulated Smad2 phosphorylation: several concentrations of the inhibitors, 100 pM TGF-β1 for 30 min
Description: (A-I, K) Cells were pretreated with 10 mg/ml β-CD (A, K), 20 LM MDC (B), 40 μM monensin (C), 20 μM TFP (D) and 0.45 M sucrose (K) or several concentrations (as indicated) of β-CD (E), TFP (F), monensin (G), chloroquine (H), dynasore (I), at 37° C. for 1 h. The cells were then stimulated with vehicle only or […] TGF-β1 (A to I) or several concentrations (as indicated) of TGF-β1 (K). After several time periods, as indicated, at 37° C., cell lysates were analysed by 7.5% SDS PAGE followed by Western blot analysis using antibodies to P-Smad2 and Smad2 and chemiluminescence development (a or top) and quantitation by densitometry (b or bottom). The relative level of P-Smad2 was expressed as arbitrary units (A.U.) (A, B, C, D, K) (b). The relative level of P-Smad2 in cells treated with TGF-β alone was taken as 100% of control (E to I, bottom). The data shown is representative of 3 independent experiments. (J) Cells were pretreated with 10 mg/ml β-CD (c,d) at 37° C. for 1 h. The cells were then stimulated with vehicle only (a) or with 100 pM TGF-β (b,d). After 30 min at 37° C. the cells were fixed and subjected to indirect immunofluorescent staining using antibody to P-Smad2. The magnification is 200×. The data shown is representative of 3 independent experiments.
If TGF-β-induced signaling occurs in endosomes, as reported previously^6-15, inhibitors of clathrin-dependent endocytosis would be expected to attenuate TGF-β-stimulated signaling such as Smad2 phosphorylation and nuclear colocalization^4,5. To test this, Mv1Lu cells were pretreated with vehicle only or with clathrin-dependent endocytosis inhibitors at 37° C. for 30 min and then treated with or without 100 pM TGF-β1. After several time periods, the relative levels of P-Smad2 in treated and stimulated cells were analyzed by quantitative Western blot analysis using antibodies to P-Smad2 and Smad2. […] After stimulation of cells with TGF-β1 for 60 min, β-CD, TFP, MDC and monensin enhanced TGF-β1-stimulated Smad2 phosphorylation by ˜1.5-2.5 fold (FIGS. 1Ab, 1Bb, 1Cb, and 1Db). To further characterize the effects of these inhibitors on Smad2 phosphorylation, Mv1Lu cells were pretreated with vehicle only or with several concentrations of the inhibitors at 37° C. for 30 min and then stimulated with 100 pM of TGF-β1. After 30 min at 37° C., cell lysates were subjected to Western blot analysis using antibodies to P-Smad2 and Smad2 followed by quantitation with densitometry. […] To determine the effect of β-CD on TGF-β1-stimulated nuclear localization of P-Smad2, Mv1Lu cells were pretreated with vehicle only or with β-CD (10 mg/ml). After 1 h at 37° C., cells were stimulated with TGF-β1 ([…]) for 30 min. The nuclear localization of P-Smad2 was then analyzed by indirect fluorescent staining.
To define the coated-pit stages that are important in TGF-β1-induced signaling, we treated Mv1Lu cells with hyperosmotic sucrose (0.45 M) or β-CD and examined TGF-β1-stimulated Smad2 phosphorylation in these cells. […] In cells stimulated with 100 pM TGF-β1, hyperosmotic sucrose attenuated Smad2 phosphorylation by ˜60% (FIG. 1Kb). On the other hand, β-CD enhanced TGF-β1-stimulated Smad2 phosphorylation at all concentrations of TGF-β1. It enhanced TGF-β1-stimulated Smad2 phosphorylation by 2-4 fold when compared with the control (treatment without β-CD) (FIGS. 1Ka and 1Kb).

[2] = system: TβR-I and SARA at the plasma membrane in Mv1Lu cells; assay: Co-localization and accumulation of TβR-I and SARA, immunofluorescent microscopy; details: 20 μM TFP, 10 mg/ml β-CD, 40 μM dynasore, 200 μM chloroquine, with 100 pM TGF-β1, 30 min
Description: Cells were pretreated with vehicle only or 20 μM TFP, 10 mg/ml β-CD, 40 μM dynasore (Dyn) and 200 μM chloroquine (CQ) at 37° C. for 1 h. Treated cells were then stimulated with and without 100 pM TGF-β1. After 30 min at 37° C., cells were fixed and analyzed by indirect immunofluorescent staining using antibody to TβR-I (panels 1-10) and SARA (panels 11-20), DAPI (nuclear) staining was also performed (panels 21-30). Merged staining is also shown (panels 31-40). Insets indicate the co-localization and accumulation of SARA and TβR-I at the plasma membrane.
TGF-β stimulates Smad2 phosphorylation by inducing association of TβR-I and SARA^6,7 (which serves as an anchor for Smad2), binding of Smad2 to SARA, and subsequent phosphorylation of Smad2 by TβR-I in the TβR-1-SARA-Smad2 complex. If clathrin-dependent endocytosis inhibitors enhance TGF-β-induced signaling (TGF-β-stimulated Smad2 phosphorylation) by increasing accumulation of TβR-I/TβR-II complexes at the coated pits, they should promote co-localization and accumulation of TβR-I and SARA at the plasma membrane. To test this, Mv1Lu cells were stimulated with 100 pM TGF-β1. After 30 min at 37° C., […] analyzed by immunofluorescent microscopy using antibodies to TβR-I and SARA. […] This is consistent with the previous report that TGF-β enhances TGF-β receptor internalization^16.

[3] = system: nuclear localization of P-Smad2 in Mv1Lu cells; assay: Nuclear localization of P-Smad2, indirect immunofluorescent staining; details: β-CD 10 mg/ml 1 h, then TGF-β1 (10 pM) for 30 min
Description: (A-I, K) Cells were pretreated with 10 mg/ml β-CD (A, K), 20 LM MDC (B), 40 μM monensin (C), 20 μM TFP (D) and 0.45 M sucrose (K) or several concentrations (as indicated) of β-CD (E), TFP (F), monensin (G), chloroquine (H), dynasore (I), at 37° C. for 1 h. The cells were then stimulated with vehicle only or […] TGF-β1 (A to I) or several concentrations (as indicated) of TGF-β1 (K). After several time periods, as indicated, at 37° C., cell lysates were analysed by 7.5% SDS PAGE followed by Western blot analysis using antibodies to P-Smad2 and Smad2 and chemiluminescence development (a or top) and quantitation by densitometry (b or bottom). The relative level of P-Smad2 was expressed as arbitrary units (A.U.) (A, B, C, D, K) (b). […]
If TGF-β-induced signaling occurs in endosomes, as reported previously^6-15, inhibitors of clathrin-dependent endocytosis would be expected to attenuate TGF-β-stimulated signaling such as Smad2 phosphorylation and nuclear colocalization^4,5. […] After several time periods, the relative levels of P-Smad2 in treated and stimulated cells were analyzed by quantitative Western blot analysis using antibodies to P-Smad2 and Smad2. […] After 30 min at 37° C., cell lysates were subjected to Western blot analysis using antibodies to P-Smad2 and Smad2 followed by quantitation with densitometry. […]

| Molecule | time dependence of the effect on TGF-β1-stimulated Smad2 phosphorylation ([1]; 10 mg/ml β-CD) | concentration dependence of the effect on TGF-β1-stimulated Smad2 phosphorylation [1] | co-localization and accumulation of TβR-I and SARA at the plasma membrane, co-treatment with TGF-β1 [2] | enhancement of TGF-β1-stimulated Smad2 phosphorylation compared with the control (treatment without β-CD) ([1]; 10 mg/ml β-CD, all concentrations of TGF-β1) | nuclear localization of P-Smad2 [3] | attenuation of Smad2 phosphorylation ([1]; hyperosmotic sucrose 0.45 M, cells stimulated with 100 pM TGF-β1) | effect on TGF-β1-stimulated Smad2 phosphorylation ([1]; hyperosmotic sucrose 0.45 M, various concentrations of TGF-β1) |
| --- | --- | --- | --- | --- | --- | --- | --- |
| CN(C)c1cccc2c(S(=O)(=O)NCCCCCN)cccc12 [MDC, monodansylcadaverine] | enhanced TGF-β1-stimulated Smad2 phosphorylation in a time-dependent manner |  |  |  |  |  |  |
| CN(C)CCCN1c2ccccc2Sc2ccc(C(F)(F)F)cc21 [TFP, triflupromazine] | enhanced TGF-β1-stimulated Smad2 phosphorylation in a time-dependent manner | enhanced TGF-β1-stimulated Smad2 phosphorylation in a concentration-dependent manner | promoted co-localization and accumulation of TβR-I and SARA at the plasma membrane |  |  |  |  |
| CC[C@@]1([C@@H]2O[C@@H]([C@H]3O[C@@](O)(CO)[C@H](C)C[C@@H]3C)C[C@@H]2C)CC[C@H]([C@]2(C)CC[C@]3(C[C@H](O)[C@@H](C)[C@@H]([C@@H](C)[C@@H](OC)[C@H](C)C(=O)O)O3)O2)O1 [monensin] | enhanced TGF-β1-stimulated Smad2 phosphorylation in a time-dependent manner | enhanced TGF-β1-stimulated Smad2 phosphorylation in a concentration-dependent manner |  |  |  |  |  |
| CCN(CC)CCCC(C)Nc1ccnc2cc(Cl)ccc12 (stereo not drawn) [chloroquine] |  | enhanced TGF-β1-stimulated Smad2 phosphorylation in a concentration-dependent manner | promoted co-localization and accumulation of TβR-I and SARA at the plasma membrane |  |  |  |  |
| methyl-β-cyclodextrin [β-CD] | enhanced TGF-β1-stimulated Smad2 phosphorylation in a time-dependent manner | enhanced TGF-β1-stimulated Smad2 phosphorylation in a concentration-dependent manner | promoted co-localization and accumulation of TβR-I and SARA at the plasma membrane | 2-4 fold | β-CD and TGF-β1 together promoted nuclear localization of P-Smad2 |  |  |
| OC[C@H]1O[C@@](CO)(O[C@H]2O[C@H](CO)[C@@H](O)[C@H](O)[C@H]2O)[C@@H](O)[C@@H]1O [hyperosmotic sucrose, sucrose] |  |  |  |  |  | ~60% | inhibited TGF-β1-stimulated Smad2 phosphorylation |

From US8487006B2, “Method of enhancing TGF-β signalling” (Auxagen, Inc., priority 2008, dated 2013)
